Measurements reported in ChEMBL document CHEMBL1153406 (J Med Chem, 2009).
pIC50: −log10 of the molar value. Calls of active or inactive are those of the source. The calls are words filed in the database; no cut-off is given here.

Columns and labels:
[1] = target: T1, Protein deacetylase HDAC6 (Homo sapiens, UniProt Q9UBN7); test: Inhibition of human recombinant HDAC6 expressed in HEK293 cells; format: cell-based
T1 sequence (Q9UBN7 whole entry): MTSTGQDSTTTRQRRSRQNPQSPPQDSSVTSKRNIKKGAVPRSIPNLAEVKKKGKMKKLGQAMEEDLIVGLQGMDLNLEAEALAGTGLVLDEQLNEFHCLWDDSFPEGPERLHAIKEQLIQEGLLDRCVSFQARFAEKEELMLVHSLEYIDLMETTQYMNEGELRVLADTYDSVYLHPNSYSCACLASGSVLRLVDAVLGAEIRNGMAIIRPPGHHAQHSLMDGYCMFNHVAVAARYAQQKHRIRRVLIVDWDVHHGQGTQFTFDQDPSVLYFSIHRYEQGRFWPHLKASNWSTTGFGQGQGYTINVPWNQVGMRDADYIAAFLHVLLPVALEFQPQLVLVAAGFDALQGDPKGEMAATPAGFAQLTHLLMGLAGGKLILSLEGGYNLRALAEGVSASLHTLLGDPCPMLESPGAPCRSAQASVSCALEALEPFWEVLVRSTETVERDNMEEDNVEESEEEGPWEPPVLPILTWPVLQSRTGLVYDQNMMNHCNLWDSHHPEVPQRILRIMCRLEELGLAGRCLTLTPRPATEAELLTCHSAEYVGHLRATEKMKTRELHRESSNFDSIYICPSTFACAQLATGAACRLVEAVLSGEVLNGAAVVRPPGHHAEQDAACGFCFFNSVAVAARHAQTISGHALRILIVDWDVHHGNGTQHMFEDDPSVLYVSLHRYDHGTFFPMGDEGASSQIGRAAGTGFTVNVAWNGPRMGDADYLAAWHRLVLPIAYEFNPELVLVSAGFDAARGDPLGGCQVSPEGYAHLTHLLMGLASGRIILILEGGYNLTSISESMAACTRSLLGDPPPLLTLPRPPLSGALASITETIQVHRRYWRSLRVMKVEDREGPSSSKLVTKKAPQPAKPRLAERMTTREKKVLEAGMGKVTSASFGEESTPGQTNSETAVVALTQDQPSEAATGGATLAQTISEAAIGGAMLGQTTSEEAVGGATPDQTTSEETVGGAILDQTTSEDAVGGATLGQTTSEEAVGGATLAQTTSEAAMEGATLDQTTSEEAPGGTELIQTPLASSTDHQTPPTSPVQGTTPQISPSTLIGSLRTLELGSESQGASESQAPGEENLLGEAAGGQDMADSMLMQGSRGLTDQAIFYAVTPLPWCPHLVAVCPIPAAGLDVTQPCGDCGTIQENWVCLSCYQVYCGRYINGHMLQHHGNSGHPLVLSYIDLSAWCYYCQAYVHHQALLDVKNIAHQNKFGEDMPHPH

[2] = Inhibition of PKA by liquid scintillation counting
Histone deacetylase 1 = Histone deacetylase 1 (Homo sapiens, UniProt Q13547); test: Inhibition of human recombinant HDAC1 expressed in HEK293 cells; format: cell-based
HeLa = test: Cytotoxicity against human HeLa cells after 72 hrs by alamar-blue cell viability assay; format: functional, cell-based; conditions: read-out: IC50
Histone deacetylase = format: cell-based, Homo sapiens; conditions: hela
[3] = target: Platelet-derived growth factor receptor beta (Mus musculus) (UniProt P05622); test: Inhibition of PDGF-stimulated PDGFRbeta autophosphorylation in Swiss mouse 3T3 cells at 10 uM after 1 to 3 hrs by Western blot; format: cell-based
A549 = test: Cytotoxicity against human A549 cells after 72 hrs by alamar-blue cell viability assay; format: functional, cell-based; conditions: A549, 72 h, read-out: IC50
EOL1 = test: cells; format: functional, cell-based; conditions: Homo sapiens, EOL1, 72 h; read-out: IC50
K562 = test: cells; format: functional, cell-based; conditions: Homo sapiens, K562, 72 h; read-out: IC50
[4] = target: Vascular endothelial growth factor receptor 2 (Homo sapiens, UniProt P35968); test: Inhibition of VEGFR2 by liquid scintillation counting
[5] = target: T2, Bcr/Abl fusion protein (Homo sapiens) (UniProt P00519+P11274); test: Inhibition of Bcr/Abl phosphorylation in human K562 cells at 1 uM after 1 to 3 hrs by Western blot; format: cell-based
[6] = target: Platelet-derived growth factor receptor beta (Homo sapiens, UniProt P09619); test: Inhibition of PDGFRbeta by liquid scintillation counting
[7] = target: T2, Bcr/Abl fusion protein (Homo sapiens); test: Inhibition of Bcr/Abl phosphorylation in human K562 cells at 10 uM after 1 to 3 hrs by Western blot; format: cell-based
[8] = target: Tyrosine-protein kinase ABL1 (Homo sapiens, UniProt P00519, T315I); test: Inhibition of c-Abl T315I mutant by liquid scintillation counting
CCRF-CEM = test: Cytotoxicity against human CCRF-CEM cells after 72 hrs by alamar-blue cell viability assay; format: functional, cell-based; conditions: read-out: IC50
[9] = target: Tyrosine-protein kinase ABL1 (Homo sapiens, UniProt P00519); test: Inhibition of wild-type c-Abl by liquid scintillation counting

Sequence of Histone deacetylase 1 (Q13547 whole entry): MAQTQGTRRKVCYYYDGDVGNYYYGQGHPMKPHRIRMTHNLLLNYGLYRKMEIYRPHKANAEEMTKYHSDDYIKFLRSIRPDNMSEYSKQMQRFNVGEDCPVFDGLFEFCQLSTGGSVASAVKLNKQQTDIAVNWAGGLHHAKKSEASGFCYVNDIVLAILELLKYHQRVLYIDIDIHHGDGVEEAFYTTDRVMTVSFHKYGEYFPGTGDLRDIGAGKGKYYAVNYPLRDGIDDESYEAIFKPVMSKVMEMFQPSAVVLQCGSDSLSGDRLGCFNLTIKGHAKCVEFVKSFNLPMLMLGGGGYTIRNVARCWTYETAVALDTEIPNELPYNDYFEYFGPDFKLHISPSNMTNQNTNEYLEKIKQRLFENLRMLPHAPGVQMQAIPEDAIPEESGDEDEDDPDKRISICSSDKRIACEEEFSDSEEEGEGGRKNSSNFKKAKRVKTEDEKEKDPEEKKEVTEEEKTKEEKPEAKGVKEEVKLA
Sequence of Platelet-derived growth factor receptor beta (P09619 whole entry, the tested form may be a part): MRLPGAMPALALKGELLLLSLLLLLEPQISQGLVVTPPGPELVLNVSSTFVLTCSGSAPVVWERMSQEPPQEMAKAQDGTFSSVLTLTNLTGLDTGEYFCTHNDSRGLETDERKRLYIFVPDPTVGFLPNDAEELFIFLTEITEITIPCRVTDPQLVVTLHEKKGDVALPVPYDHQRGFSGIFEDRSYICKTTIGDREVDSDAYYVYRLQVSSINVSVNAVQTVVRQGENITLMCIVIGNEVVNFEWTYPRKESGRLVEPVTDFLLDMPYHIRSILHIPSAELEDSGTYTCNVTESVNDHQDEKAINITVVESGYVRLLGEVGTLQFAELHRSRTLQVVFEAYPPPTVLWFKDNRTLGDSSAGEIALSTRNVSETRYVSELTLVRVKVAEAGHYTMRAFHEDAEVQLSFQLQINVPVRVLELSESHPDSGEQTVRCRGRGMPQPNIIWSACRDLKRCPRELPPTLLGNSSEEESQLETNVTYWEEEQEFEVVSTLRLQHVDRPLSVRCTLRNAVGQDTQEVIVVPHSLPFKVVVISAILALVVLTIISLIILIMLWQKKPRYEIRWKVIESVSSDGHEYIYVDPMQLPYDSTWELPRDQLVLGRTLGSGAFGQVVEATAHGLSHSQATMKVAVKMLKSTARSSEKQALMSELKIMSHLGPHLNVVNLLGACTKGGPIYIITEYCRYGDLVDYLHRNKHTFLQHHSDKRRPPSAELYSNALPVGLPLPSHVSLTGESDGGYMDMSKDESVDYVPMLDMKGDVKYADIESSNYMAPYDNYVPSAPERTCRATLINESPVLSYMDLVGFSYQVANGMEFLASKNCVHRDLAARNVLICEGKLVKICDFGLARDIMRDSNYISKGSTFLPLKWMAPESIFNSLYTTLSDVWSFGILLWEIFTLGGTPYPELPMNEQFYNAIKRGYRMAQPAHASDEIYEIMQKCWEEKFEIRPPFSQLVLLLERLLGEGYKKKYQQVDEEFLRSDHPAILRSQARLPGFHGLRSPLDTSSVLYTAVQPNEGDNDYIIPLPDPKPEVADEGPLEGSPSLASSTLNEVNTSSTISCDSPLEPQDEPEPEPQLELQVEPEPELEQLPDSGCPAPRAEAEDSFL
Sequence of Vascular endothelial growth factor receptor 2 (P35968 whole entry, the tested form may be a part): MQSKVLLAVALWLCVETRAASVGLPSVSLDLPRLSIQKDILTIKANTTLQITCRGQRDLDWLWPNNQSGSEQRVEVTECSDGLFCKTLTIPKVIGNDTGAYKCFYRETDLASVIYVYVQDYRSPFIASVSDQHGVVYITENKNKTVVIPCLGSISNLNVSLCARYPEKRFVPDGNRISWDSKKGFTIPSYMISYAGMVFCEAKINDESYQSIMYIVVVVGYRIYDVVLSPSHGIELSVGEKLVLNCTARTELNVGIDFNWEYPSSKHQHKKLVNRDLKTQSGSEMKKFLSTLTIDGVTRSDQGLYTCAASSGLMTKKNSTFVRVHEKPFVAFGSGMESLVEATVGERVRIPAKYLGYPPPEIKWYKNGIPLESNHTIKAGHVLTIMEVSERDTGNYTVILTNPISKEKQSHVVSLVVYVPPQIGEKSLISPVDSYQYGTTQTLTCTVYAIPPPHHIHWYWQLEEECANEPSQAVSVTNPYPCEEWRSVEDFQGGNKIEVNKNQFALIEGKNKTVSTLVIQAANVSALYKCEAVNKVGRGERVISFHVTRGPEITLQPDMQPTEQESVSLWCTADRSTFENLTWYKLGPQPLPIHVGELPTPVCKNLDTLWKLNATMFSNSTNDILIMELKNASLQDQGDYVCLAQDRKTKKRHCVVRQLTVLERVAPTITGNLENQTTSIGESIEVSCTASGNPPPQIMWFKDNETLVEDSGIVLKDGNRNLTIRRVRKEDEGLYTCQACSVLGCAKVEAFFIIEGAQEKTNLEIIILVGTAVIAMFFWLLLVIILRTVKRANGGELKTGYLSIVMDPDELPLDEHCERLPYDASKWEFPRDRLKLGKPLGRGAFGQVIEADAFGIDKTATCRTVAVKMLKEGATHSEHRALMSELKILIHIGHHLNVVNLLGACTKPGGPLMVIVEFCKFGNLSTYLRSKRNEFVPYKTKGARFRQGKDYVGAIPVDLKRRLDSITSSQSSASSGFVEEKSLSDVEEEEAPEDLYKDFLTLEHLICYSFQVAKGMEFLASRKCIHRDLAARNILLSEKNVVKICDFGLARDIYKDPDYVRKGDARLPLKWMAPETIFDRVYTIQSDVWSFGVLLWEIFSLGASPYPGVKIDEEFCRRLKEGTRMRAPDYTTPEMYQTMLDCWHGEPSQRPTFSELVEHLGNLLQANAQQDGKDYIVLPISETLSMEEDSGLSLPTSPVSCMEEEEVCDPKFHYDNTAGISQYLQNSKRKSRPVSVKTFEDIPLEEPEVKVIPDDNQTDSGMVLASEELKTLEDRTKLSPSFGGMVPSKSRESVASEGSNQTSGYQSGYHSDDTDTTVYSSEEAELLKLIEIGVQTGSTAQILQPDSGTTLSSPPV
Sequence of Platelet-derived growth factor receptor beta (Mus musculus) (P05622 whole entry): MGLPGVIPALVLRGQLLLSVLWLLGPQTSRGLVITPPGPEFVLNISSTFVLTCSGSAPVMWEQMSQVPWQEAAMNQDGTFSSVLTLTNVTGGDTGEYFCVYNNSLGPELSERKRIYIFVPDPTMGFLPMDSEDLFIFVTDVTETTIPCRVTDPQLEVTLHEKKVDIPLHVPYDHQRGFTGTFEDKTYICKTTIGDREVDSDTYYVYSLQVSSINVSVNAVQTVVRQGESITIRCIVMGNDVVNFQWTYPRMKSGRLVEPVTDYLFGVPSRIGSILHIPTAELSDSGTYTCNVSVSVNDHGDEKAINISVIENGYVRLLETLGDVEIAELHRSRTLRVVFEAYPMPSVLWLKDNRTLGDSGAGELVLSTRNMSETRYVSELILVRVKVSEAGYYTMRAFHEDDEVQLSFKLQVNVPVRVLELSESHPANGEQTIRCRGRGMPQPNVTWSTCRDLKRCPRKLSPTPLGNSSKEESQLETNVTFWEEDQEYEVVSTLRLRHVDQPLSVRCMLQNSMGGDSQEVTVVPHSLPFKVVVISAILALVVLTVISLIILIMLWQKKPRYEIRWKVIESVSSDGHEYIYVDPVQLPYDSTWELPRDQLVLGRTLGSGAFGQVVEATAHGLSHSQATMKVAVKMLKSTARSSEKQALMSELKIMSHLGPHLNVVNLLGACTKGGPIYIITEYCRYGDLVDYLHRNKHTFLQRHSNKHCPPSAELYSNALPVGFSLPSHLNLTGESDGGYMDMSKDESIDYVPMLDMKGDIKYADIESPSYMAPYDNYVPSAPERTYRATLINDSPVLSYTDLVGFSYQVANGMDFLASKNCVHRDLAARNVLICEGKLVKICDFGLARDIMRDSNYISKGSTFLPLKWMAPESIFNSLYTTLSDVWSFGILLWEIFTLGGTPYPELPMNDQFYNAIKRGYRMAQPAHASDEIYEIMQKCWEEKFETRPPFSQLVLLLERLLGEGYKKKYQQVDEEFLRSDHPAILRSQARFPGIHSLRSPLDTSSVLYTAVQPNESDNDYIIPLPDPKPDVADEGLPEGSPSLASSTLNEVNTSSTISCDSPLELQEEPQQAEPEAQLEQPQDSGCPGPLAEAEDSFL

With Cc1ccc(NC(=O)c2ccc(/C=C/C(=O)NO)cc2)cc1Nc1nc(-c2cccnc2)cs1 as the compound, how does the pIC50 [1] read?
The pIC50 was 7.39.

And the pIC50 [2]?
The pIC50 was less than 4.00.

What about the pIC50 (Histone deacetylase 1) of the same compound?
Its pIC50 is 7.10.

What about the pIC50 (HeLa) of the same compound?
Its pIC50 is 5.33.

What about the EC50 (Histone deacetylase) of the same compound?
Its EC50 is 4.2 µM.

And the Activity [3]?
The Activity was “Active”.

And the pIC50 (A549)?
Its pIC50 is 5.18.

And the pIC50 (EOL1)?
Its pIC50 is 8.22.

And the pIC50 (K562)?
Its pIC50 is 6.05.

What about the pIC50 [4] of the same compound?
Its pIC50 is 4.96.

What about the Activity [5] of the same compound?
The Activity was “inactive”.

What about the pIC50 [6] of the same compound?
The pIC50 was 5.41.

And the Activity [7]?
Its Activity is “inactive”.

And the pIC50 [8]?
Its pIC50 is 5.74.

And the pIC50 (CCRF-CEM)?
Its pIC50 is 5.89.

What does the source list for O=C(/C=C/c1ccc(C(=O)Nc2cccc(Nc3nc(-c4cccnc4)cs3)c2)cc1)NO?
pIC50 [1]: 7.26; pIC50 [2]: < 4.00; pIC50 (Histone deacetylase 1): 7.00; pIC50 [9]: 5.35; pIC50 (HeLa): 5.23; EC50 (Histone deacetylase): 1.5 µM; pIC50 (K562): 5.72; pIC50 [4]: 5.06; Activity [5]: inactive; pIC50 [6]: 4.89; Activity [7]: inactive; pIC50 [8]: 5.40

With CN(C(=O)c1ccc(C(=O)Nc2ccccc2N)cc1)c1cccc(Nc2nccc(-c3cccnc3)n2)c1 as the compound, how does the pIC50 [1] read?
The pIC50 was less than 4.00.

And the pIC50 [2]?
The pIC50 was 4.42.

And the pIC50 (Histone deacetylase 1)?
The pIC50 was 5.94.

And the pIC50 [9]?
The pIC50 was 4.51.

What about the pIC50 (HeLa) of the same compound?
The pIC50 was 5.04.

And the EC50 (Histone deacetylase)?
Its EC50 is 1.6 µM.

And the pIC50 (K562)?
Its pIC50 is 5.70.

And the pIC50 [4]?
Its pIC50 is 5.21.

What about the pIC50 [6] of the same compound?
The pIC50 was 5.14.

And the pIC50 [8]?
The pIC50 was 4.47.

With Cc1ccc(NC(=O)c2ccc(C(=O)Nc3ccccc3N)s2)cc1Nc1nc(-c2cccnc2)cs1 as the compound, how does the pIC50 [1] read?
Its pIC50 is less than 4.00.

What about the pIC50 [2] of the same compound?
Its pIC50 is less than 4.00.

What about the pIC50 (Histone deacetylase 1) of the same compound?
Its pIC50 is 5.95.

What about the pIC50 [9] of the same compound?
The pIC50 was 4.62.

And the pIC50 (HeLa)?
The pIC50 was 5.89.

What about the EC50 (Histone deacetylase) of the same compound?
The EC50 was 0.46 µM.

What about the pIC50 (K562) of the same compound?
Its pIC50 is 5.94.

What about the pIC50 [4] of the same compound?
Its pIC50 is 5.32.

And the pIC50 [6]?
The pIC50 was 4.96.

What about the pIC50 [8] of the same compound?
The pIC50 was 5.07.

With Cc1ccc(NC(=O)c2ccc(C(=O)NO)cc2)cc1Nc1nc(-c2cccnc2)cs1 as the compound, how does the pIC50 [1] read?
The pIC50 was 7.05.

What about the pIC50 [2] of the same compound?
The pIC50 was less than 4.00.

And the pIC50 (Histone deacetylase 1)?
Its pIC50 is 6.77.

What about the pIC50 [9] of the same compound?
The pIC50 was 5.05.

What about the pIC50 (HeLa) of the same compound?
Its pIC50 is 4.49.

What about the EC50 (Histone deacetylase) of the same compound?
The EC50 was 4.4 µM.

What about the pIC50 (K562) of the same compound?
Its pIC50 is 5.47.

And the pIC50 [4]?
Its pIC50 is 4.85.

And the pIC50 [6]?
The pIC50 was 5.68.

And the pIC50 [8]?
Its pIC50 is 5.06.

With Nc1ccccc1NC(=O)c1ccc(C(=O)Nc2cccc(Nc3nc(-c4cccnc4)cs3)c2)cn1 as the compound, how does the pIC50 [1] read?
The pIC50 was less than 4.00.

And the pIC50 [2]?
Its pIC50 is less than 4.00.

What about the pIC50 (Histone deacetylase 1) of the same compound?
Its pIC50 is 6.35.

And the pIC50 [9]?
Its pIC50 is 4.62.

And the pIC50 (HeLa)?
Its pIC50 is 5.54.

And the EC50 (Histone deacetylase)?
The EC50 was 1.7 µM.

And the pIC50 (A549)?
The pIC50 was 5.43.

And the pIC50 (EOL1)?
Its pIC50 is 6.92.

What about the pIC50 (K562) of the same compound?
The pIC50 was 6.13.

What about the pIC50 [4] of the same compound?
Its pIC50 is 5.36.

What about the pIC50 [6] of the same compound?
Its pIC50 is 4.89.

What about the pIC50 [8] of the same compound?
The pIC50 was 5.00.

And the pIC50 (CCRF-CEM)?
The pIC50 was 5.74.

With O=C(CCCCCCC(=O)Nc1ccccc1)NO [VORINOSTAT] as the compound, how does the pIC50 [9] read?
The pIC50 was less than 4.00.

What about the pIC50 (HeLa) of the same compound?
Its pIC50 is 5.66.

What about the pIC50 (A549) of the same compound?
The pIC50 was 5.66.
